Measurements reported in US9708336B2, “Metallo-beta-lactamase inhibitors” (priority 2014, dated 2017).
Where two headings read alike, the source gives them in different places.

Legend:
NDM-1 = NDM-1 (Klebsiella pneumoniae, UniProt C7C422); assay: biochemical; assay type: biochemical; settings: read-out: NDM-1 IC50
[1] = test system: Klebsiella pneumoniae expressing VIM-1 (IHMA599644); assay: Antibiotic potentiation activity: synergistic concentration (MITC95) with imipenem, OD600 growth; assay type: cell-based; settings: for Klebsiella pneumoniae expressing VIM-1 (IHMA 599644) MITC95: concentration giving 95% inhibition of bacterial growth; for Klebsiella pneumoniae MITC95: Klebsiella pneumoniae expressing VIM-1 (IHMA599644), 95% growth inhibition
How it was run: (§1)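 Clinical MBL-producing strains (E. coli NDM-1, S. marcescens IMP-1, K. pneumoniae VIM-1) from overnight plates were diluted 1:100 into 1.1×CAMHB. Compound was tested with imipenem at 4 μg/ml (optionally 1 μg/ml) or without it. After 22–24 h at 35 °C, growth was read as OD600.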

[2] = test system: Serratia marcescens expressing IMP-1 (CL5741); assay: as above; assay type: cell-based; settings: for Serratia marcescens expressing IMP-1 (CL5741) MITC95: concentration giving 95% inhibition of bacterial growth; for Serratia marcescens MITC95: Serratia marcescens expressing IMP-1 (CL5741), 95% growth inhibition
How it was run: as §1

[3] = test system: Escherichia coli expressing NDM-1 (CLB30005); assay: as above; assay type: cell-based; settings: for Escherichia coli expressing NDM-1 (CLB 30005) MITC95: concentration giving 95% inhibition of bacterial growth; for Escherichia coli MITC95: Escherichia coli expressing NDM-1 (CLB30005), 95% growth inhibition
How it was run: as §1

IMP-1 = IMP-1 (Serratia marcescens, UniProt P52699); assay: biochemical; assay type: biochemical; settings: read-out: IMP-1 IC50
VIM-1 = VIM-1 (Pseudomonas aeruginosa (strain ATCC 15692 / DSM 22644 / CIP 104116 / JCM 14847 / LMG 12228 / 1C / PRS 101 / PAO1), UniProt A0A0F7KYQ8); assay: Enzyme activity: determination of IC50, fluorescence assay with CCF2-FA substrate (VIM-1); assay type: biochemical; settings: read-out: VIM-1 IC50
[4] = fluorescence assay with CCF2-FA substrate
[5] = NDM-1 enzyme, CCF2-FA fluorescence assay
[6] = IMP-1 enzyme, CCF2-FA fluorescence assay
[7] = VIM-1 enzyme, CCF2-FA fluorescence assay

NDM-1, sequence (C7C422 whole entry, looked up, species assumed): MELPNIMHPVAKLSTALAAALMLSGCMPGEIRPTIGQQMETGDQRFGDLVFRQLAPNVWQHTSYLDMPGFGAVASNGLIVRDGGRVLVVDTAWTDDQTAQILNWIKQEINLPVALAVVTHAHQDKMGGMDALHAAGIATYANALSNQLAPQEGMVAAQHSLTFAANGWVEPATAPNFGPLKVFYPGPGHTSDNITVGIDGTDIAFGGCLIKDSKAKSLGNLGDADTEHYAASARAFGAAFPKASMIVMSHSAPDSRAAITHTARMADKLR
IMP-1, sequence (P52699 whole entry, looked up): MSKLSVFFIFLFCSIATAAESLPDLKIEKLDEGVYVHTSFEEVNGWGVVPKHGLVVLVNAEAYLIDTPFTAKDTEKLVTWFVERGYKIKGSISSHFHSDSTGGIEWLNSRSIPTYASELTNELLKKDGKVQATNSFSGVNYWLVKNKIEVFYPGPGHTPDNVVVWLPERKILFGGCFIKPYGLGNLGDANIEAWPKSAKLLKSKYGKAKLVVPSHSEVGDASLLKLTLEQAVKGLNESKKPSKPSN

Structure (SMILES): NS(=O)(=O)c1cccc(C#CCC2CNCCO2)c1-c1nn[nH]n1 (stereo not drawn) [Example 145, 3-(3-morpholin-2-ylprop-1-yn-1-yl)-2-(2H-tetrazol-5-yl)benzenesulfonamide]
- IC50 (NDM-1; [4]): 0.191 µM
- Klebsiella pneumoniae expressing VIM-1 (IHMA 599644) MITC95 [1]: >200 µM
- Serratia marcescens expressing IMP-1 (CL5741) MITC95 [2]: 75 µM
- Escherichia coli expressing NDM-1 (CLB 30005) MITC95 [3]: 0.7813 µM
- IC50 (IMP-1; [4]): 2.41 µM
- IC50 (VIM-1; [4]): 6.41 µM

Structure (SMILES): NS(=O)(=O)c1cccc(-c2cnn(Cc3ccncc3)c2)c1-c1nn[nH]n1 [Example 100, 3-[1-(pyridin-4-ylmethyl)-1H-pyrazol-4-yl]-2-(2H-tetrazol-5-yl)benzenesulfonamide]
- IC50 (NDM-1; [4]): 0.0296 µM
- Klebsiella pneumoniae expressing VIM-1 (IHMA 599644) MITC95 [1]: >200 µM
- Serratia marcescens expressing IMP-1 (CL5741) MITC95 [2]: 14.06 µM
- Escherichia coli expressing NDM-1 (CLB 30005) MITC95 [3]: 7.031 µM
- IC50 (IMP-1; [4]): 0.146 µM
- IC50 (VIM-1; [4]): 0.94 µM

Structure (SMILES): NS(=O)(=O)c1cccc(-c2cnn3c2CCCC3)c1-c1nn[nH]n1 [Example 107, 3-(4,5,6,7-tetrahydropyrazolo[1,5-a]pyridin-3-yl)-2-(2H-tetrazol-5-yl)benzenesulfonamide]
- IC50 (NDM-1; [4]): 0.01 µM
- Klebsiella pneumoniae expressing VIM-1 (IHMA 599644) MITC95 [1]: 200 µM
- Serratia marcescens expressing IMP-1 (CL5741) MITC95 [2]: 15.63 µM
- Escherichia coli expressing NDM-1 (CLB 30005) MITC95 [3]: 3.906 µM
- IC50 (IMP-1; [4]): 0.365 µM
- IC50 (VIM-1; [4]): 0.194 µM

Structure (SMILES): NS(=O)(=O)c1cccc(-c2ccc(N3CCCCC3)nc2)c1-c1nn[nH]n1 [Example 322, 3-(6-(piperidin-1-yl)pyridin-3-yl)-2-(2H-tetrazol-5-yl)benzenesulfonamide]
- IC50 (NDM-1; [5]): 0.0365 µM
- Klebsiella pneumoniae MITC95 [1]: 200 µM
- Serratia marcescens MITC95 [2]: 25 µM
- Escherichia coli MITC95 [3]: 7.813 µM
- IC50 (IMP-1; [6]): 0.321 µM
- IC50 (VIM-1; [7]): 3.65 µM

Structure (SMILES): CS(=O)(=O)c1nc2cc(Cl)c(-c3cccc(S(N)(=O)=O)c3-c3nn[nH]n3)cc2[nH]1 [Example 278, 3-(5-chloro-2-(methylsulfonyl)-1H-benzo[d]imidazol-6-yl)-2-(2H-tetrazol-5-yl)benzenesulfonamide]
- IC50 (NDM-1; [5]): 0.0085 µM
- Klebsiella pneumoniae MITC95 [1]: 100 µM
- Serratia marcescens MITC95 [2]: 37.5 µM
- Escherichia coli MITC95 [3]: 3.125 µM
- IC50 (IMP-1; [6]): 0.536 µM
- IC50 (VIM-1; [7]): 0.0791 µM

Structure (SMILES): Cn1ncc2cc(-c3cccc(S(N)(=O)=O)c3-c3nn[nH]n3)ccc21 [Example 68, 3-(1-methyl-1H-indazol-5-yl)-2-(2H-tetrazol-5-yl)benzenesulfonamide]
- IC50 (NDM-1; [4]): 0.00199 µM
- Klebsiella pneumoniae expressing VIM-1 (IHMA 599644) MITC95 [1]: 75 µM
- Serratia marcescens expressing IMP-1 (CL5741) MITC95 [2]: 12.5 µM
- Escherichia coli expressing NDM-1 (CLB 30005) MITC95 [3]: 2.344 µM
- IC50 (IMP-1; [4]): 0.0819 µM
- IC50 (VIM-1; [4]): 0.0337 µM

Structure (SMILES): Cn1ccc(-c2cccc(S(N)(=O)=O)c2-c2nn[nH]n2)n1 [Example 97, 3-(1-methyl-1H-pyrazol-3-yl)-2-(2H-tetrazol-5-yl)benzenesulfonamide]
- IC50 (NDM-1; [4]): 0.0711 µM
- Klebsiella pneumoniae expressing VIM-1 (IHMA 599644) MITC95 [1]: 200 µM
- Serratia marcescens expressing IMP-1 (CL5741) MITC95 [2]: 18.75 µM
- Escherichia coli expressing NDM-1 (CLB 30005) MITC95 [3]: 0.5859 µM
- IC50 (IMP-1; [4]): 1.57 µM
- IC50 (VIM-1; [4]): 1.61 µM

Structure (SMILES): CCCc1ccc(-c2ccc(C3CCNCC3)cc2)c(-c2nnn[nH]2)c1S(N)(=O)=O [Example 260, 4′-(Piperidin-4-yl)-4-propyl-2-(1H-tetrazol-5-yl)-[1,1′-biphenyl]-3-sulfonamide]
- IC50 (NDM-1; [5]): 0.0112 µM
- Klebsiella pneumoniae MITC95 [1]: 6.25 µM
- Serratia marcescens MITC95 [2]: 1.563 µM
- Escherichia coli MITC95 [3]: 6.25 µM
- IC50 (IMP-1; [6]): 0.00672 µM
- IC50 (VIM-1; [7]): 0.000797 µM

Structure (SMILES): Cc1ccccc1-c1ccnc(S(N)(=O)=O)c1-c1nn[nH]n1 [Example 210, 3-(2H-tetrazol-5-yl)-4-(o-tolyl)pyridine-2-sulfonamide]
- IC50 (NDM-1; [4]): 0.0118 µM
- Klebsiella pneumoniae expressing VIM-1 (IHMA 599644) MITC95 [1]: 15.63 µM
- Serratia marcescens expressing IMP-1 (CL5741) MITC95 [2]: 25 µM
- Escherichia coli expressing NDM-1 (CLB 30005) MITC95 [3]: 0.5208 µM
- IC50 (IMP-1; [4]): 0.421 µM
- IC50 (VIM-1; [4]): 0.0255 µM

Structure (SMILES): NS(=O)(=O)c1cccc(C(=O)O)c1-c1nn[nH]n1 [Example 297, 3-Sulfamoyl-2-(2H-tetrazol-5-yl)benzoic acid]
- IC50 (NDM-1; [5]): 2.48 µM
- Klebsiella pneumoniae MITC95 [1]: >200 µM
- Serratia marcescens MITC95 [2]: >200 µM
- Escherichia coli MITC95 [3]: 12.5 µM
- IC50 (IMP-1; [6]): 20 µM
- IC50 (VIM-1; [7]): 20 µM

Structure (SMILES): CCCc1ccc(-c2cccc(S(N)(=O)=O)c2-c2nnn[nH]2)cn1 [Example 302, 3-(6-propylpyridin-3-yl)-2-(1H-tetrazol-5-yl)benzenesulfonamide]
- IC50 (NDM-1; [5]): 0.00585 µM
- Klebsiella pneumoniae MITC95 [1]: 150 µM
- Serratia marcescens MITC95 [2]: 3.906 µM
- Escherichia coli MITC95 [3]: 0.3906 µM
- IC50 (IMP-1; [6]): 0.111 µM
- IC50 (VIM-1; [7]): 0.0385 µM
